Measured values: patent US11071300B2, “Pesticidally active pyrazole derivatives” (SYNGENTA PARTICIPATIONS AG, priority 2017, dated 2021)
Where two headings read alike, the source gives them in different places.

Assays:
Assay type in all cases: in vivo
Spodoptera littoralis = Spodoptera littoralis (Egyptian cotton leaf worm) leaf disc test; conditions: foliar, 72 h, read-out: control (at least one of mortality, anti-feedant effect, growth inhibition); for percent control (mortality, anti-feedant effect or growth inhibition) at 200 ppm: application rate 200 ppm, cotton leaf discs sprayed, L1 larvae, 3 days after infestation
Procedure: Spodoptera littoralis (Egyptian Cotton Leaf Worm)
Cotton leaf discs were placed on agar in 24-well microtiter plates and sprayed with aqueous test solutions prepared from 10′000 ppm DMSO stock solutions. After drying the leaf discs were infested with five L1 larvae. The samples were assessed for mortality, anti-feedant effect, and growth inhibition in comparison to untreated samples 3 days after infestation. Control of Spodoptera littoralis by a test sample is when at least one of mortality, anti-feedant effect, and growth inhibition is higher than the untreated sample.

Plutella xylostella = Plutella xylostella (diamond back moth) artificial diet test; conditions: 120 h, read-out: control (mortality and growth inhibition)
Procedure: Plutella xylostella (Diamond Back Moth):
(§1) 24-well microtiter plates with artificial diet were treated with aqueous test solutions prepared from 10′000 ppm DMSO stock solutions by pipetting. After drying, the plates were infested with L2 larvae (10 to 15 per well). The samples were assessed for mortality and growth inhibition in comparison to untreated samples 5 days after infestation.

Tetranychus urticae = Tetranychus urticae (two-spotted spider mite) leaf disc test; conditions: foliar, 192 h, application rate 200 ppm, bean leaf discs sprayed, 8 days after infestation, read-out: control (mortality on mixed population, mobile stages)
Procedure: Tetranychus urticae (Two-Spotted Spider Mite):
Bean leaf discs on agar in 24-well microtiter plates were sprayed with aqueous test solutions prepared from 10′000 ppm DMSO stock solutions. After drying the leaf discs were infested with a mite population of mixed ages. The samples were assessed for mortality on mixed population (mobile stages) 8 days after infestation.

Diabrotica Balteata = assay: Diabrotica balteata (corn root worm) maize sprout test; conditions: 96 h, read-out: control (mortality and growth inhibition)
Procedure: Diabrotica Balteata, (Corn Root Worm)
as §1, with “Maize sprouts, placed on an agar layer in 24-well” for “24-well”, “plates” for “plates with artificial diet”, “spraying.” for “pipetting.”, “(6” for “(10”, “10” for “15”, “4” for “5”

Thrips tabaci = Thrips tabaci (onion thrips) leaf disc test; conditions: foliar, 144 h, read-out: control (mortality)
Procedure: Thrips tabaci (Onion Thrips):
Sunflower leaf discs were placed on agar in 24-well microtiter plates and sprayed with aqueous test solutions prepared from 10′000 ppm DMSO stock solutions. After drying the leaf discs were infested with a thrips population of mixed ages. The samples were assessed for mortality 6 days after infestation.

[1] = application rate 200 ppm, artificial diet, L2 larvae, 5 days after infestation
[2] = application rate 200 ppm, maize sprouts sprayed, L2 larvae, 4 days after infestation
[3] = application rate 200 ppm, sunflower leaf discs sprayed, mixed ages, 6 days after infestation

Cn1nc(OS(=O)(=O)C(F)(C(F)(F)F)C(F)(F)F)c(C(F)(F)F)c1-n1cc(-c2ccc(Cl)c(C(N)=O)c2)cn1 [Compound 67, [5-[4-(3-carbamoyl-4-chloro-phenyl)pyrazol-1-yl]-1-methyl-4-(trifluoromethyl)pyrazol-3-yl] 1,1,1,2,3,3,3-heptafluoropropane-2-sulfonate]
≥ 80%: percent control (mortality, anti-feedant effect or growth inhibition) at 200 ppm (Spodoptera littoralis) | mortality at 200 ppm (Plutella xylostella; [1]) | mortality at 200 ppm (Tetranychus urticae)

CN(C(=O)c1cc(-c2cnn(-c3c(C(F)(F)F)c(OS(=O)(=O)C(F)(F)C(F)(F)F)nn3C)c2)ccc1Cl)C1CC1 [Compound 16, [5-[4-[4-chloro-3-[cyclopropyl(methyl)carbamoyl]phenyl]pyrazol-1-yl]-1-methyl-4-(trifluoromethyl)pyrazol-3-yl] 1,1,2,2,2-pentafluoroethanesulfonate]
≥ 80%: percent control (mortality, anti-feedant effect or growth inhibition) at 200 ppm (Spodoptera littoralis) | mortality at 200 ppm (Plutella xylostella; [1]) | mortality at 200 ppm (Diabrotica Balteata; [2])

Cn1nc(OS(=O)(=O)C(F)(C(F)(F)F)C(F)(F)F)c(C(F)(F)F)c1-n1cc(-c2ccc(Cl)c(C(=O)N(/C(F)=C(\F)C(F)(F)F)C3(C#N)CC3)c2)cn1 [Compound 58, [5-[4-[4-chloro-3-[(1-cyanocyclopropyl)-[(E)-1,2,3,3,3-pentafluoroprop-1-enyl]carbamoyl]phenyl]pyrazol-1-yl]-1-methyl-4-(trifluoromethyl)pyrazol-3-yl] 1,1,1,2,3,3,3-heptafluoropropane-2-sulfonate]
≥ 80%: percent control (mortality, anti-feedant effect or growth inhibition) at 200 ppm (Spodoptera littoralis) | mortality at 200 ppm (Plutella xylostella; [1]) | mortality at 200 ppm (Diabrotica Balteata; [2]) | mortality at 200 ppm (Tetranychus urticae)

Cn1nc(OS(=O)(=O)C(F)(F)C(F)(F)F)c(C(F)(F)F)c1-n1cc(-c2ccc(Cl)c(C(=O)NC3CC3)c2)cn1 [Compound 20, [5-[4-[4-chloro-3-(cyclopropylcarbamoyl)phenyl]pyrazol-1-yl]-1-methyl-4-(trifluoromethyl)pyrazol-3-yl] 1,1,2,2,2-pentafluoroethanesulfonate]
≥ 80%: percent control (mortality, anti-feedant effect or growth inhibition) at 200 ppm (Spodoptera littoralis) | mortality at 200 ppm (Plutella xylostella; [1]) | mortality at 200 ppm (Diabrotica Balteata; [2]) | mortality at 200 ppm (Thrips tabaci; [3]) | mortality at 200 ppm (Tetranychus urticae)

CN(C(=O)c1cc(-c2cnn(-c3c(C(F)(F)F)c(OS(=O)(=O)C(F)(F)C(F)(F)C(F)(F)C(F)(F)F)nn3C)c2)cnc1Cl)C1CC1 [Compound 28, [5-[4-[6-chloro-5-[cyclopropyl(methyl)carbamoyl]-3-pyridyl]pyrazol-1-yl]-1-methyl-4-(trifluoromethyl)pyrazol-3-yl] 1,1,2,2,3,3,4,4,4-nonafluorobutane-1-sulfonate]
≥ 80%: percent control (mortality, anti-feedant effect or growth inhibition) at 200 ppm (Spodoptera littoralis) | mortality at 200 ppm (Plutella xylostella) | mortality at 200 ppm (Diabrotica Balteata) | mortality at 200 ppm (Thrips tabaci)

CN(C(=O)c1cc(-c2cnn(-c3c(C(F)(F)F)c(OS(=O)(=O)C(F)(F)C(F)(F)Cl)nn3C)c2)ccc1Cl)C1CC1 [Compound 11, [5-[4-[4-chloro-3-[cyclopropyl(methyl)carbamoyl]phenyl]pyrazol-1-yl]-1-methyl-4-(trifluoromethyl)pyrazol-3-yl] 2-chloro-1,1,2,2-tetrafluoro-ethanesulfonate]
≥ 80%: percent control (mortality, anti-feedant effect or growth inhibition) at 200 ppm (Spodoptera littoralis) | mortality at 200 ppm (Plutella xylostella; [1]) | mortality at 200 ppm (Diabrotica Balteata; [2]) | mortality at 200 ppm (Thrips tabaci; [3])

CN(C(=O)c1cc(-c2cnn(-c3c(C(F)(F)F)c(OS(=O)(=O)C(F)(F)C(F)(F)C(F)(F)C(F)(F)F)nn3C)c2)cnc1Cl)C1(C#N)CC1 [Compound 31, [5-[4-[6-chloro-5-[(1-cyanocyclopropyl)-methyl-carbamoyl]-3-pyridyl]pyrazol-1-yl]-1-methyl-4-(trifluoromethyl)pyrazol-3-yl] 1,1,2,2,3,3,4,4,4-nonafluorobutane-1-sulfonate]
≥ 80%: percent control (mortality, anti-feedant effect or growth inhibition) at 200 ppm (Spodoptera littoralis) | mortality at 200 ppm (Plutella xylostella) | mortality at 200 ppm (Diabrotica Balteata) | mortality at 200 ppm (Thrips tabaci)

CN(C(=O)c1cc(-c2cnn(-c3c(C(F)(F)F)c(OS(=O)(=O)C(F)(F)C(F)(F)F)nn3C)c2)ccc1Cl)C1(C#N)CC1 [Compound 7, [5-[4-[4-chloro-3-[(1-cyanocyclopropyl)-methyl-carbamoyl]phenyl]pyrazol-1-yl]-1-methyl-4-(trifluoromethyl)pyrazol-3-yl] 1,1,2,2,2-pentafluoroethanesulfonate]
≥ 80%: percent control (mortality, anti-feedant effect or growth inhibition) at 200 ppm (Spodoptera littoralis) | mortality at 200 ppm (Plutella xylostella; [1]) | mortality at 200 ppm (Diabrotica Balteata; [2]) | mortality at 200 ppm (Thrips tabaci; [3])

Cn1nc(OS(=O)(=O)C(F)(F)C(F)(F)C(F)(F)C(F)(F)F)c(C(F)(F)F)c1-c1cc(-c2ccc(Cl)c(C(=O)NC3CC3)c2)on1 [Compound 39, [5-[5-[4-chloro-3-(cyclopropylcarbamoyl)phenyl]isoxazol-3-yl]-1-methyl-4-(trifluoromethyl)pyrazol-3-yl] 1,1,2,2,3,3,4,4,4-nonafluorobutane-1-sulfonate]
≥ 80%: mortality at 200 ppm (Plutella xylostella) | mortality at 200 ppm (Diabrotica Balteata)

CCN(C(=O)c1cc(-c2cnn(-c3c(C(F)(F)F)c(OS(=O)(=O)C(F)(F)C(F)(F)C(F)(F)C(F)(F)F)nn3C)c2)ccc1Cl)C1CC1 [Compound 13, [5-[4-[4-chloro-3-[cyclopropyl(ethyl)carbamoyl]phenyl]pyrazol-1-yl]-1-methyl-4-(trifluoromethyl)pyrazol-3-yl] 1,1,2,2,3,3,4,4,4-nonafluorobutane-1-sulfonate]
≥ 80%: percent control (mortality, anti-feedant effect or growth inhibition) at 200 ppm (Spodoptera littoralis) | mortality at 200 ppm (Plutella xylostella) | mortality at 200 ppm (Diabrotica Balteata) | mortality at 200 ppm (Thrips tabaci)

Cn1nc(OS(=O)(=O)F)c(C(F)(F)F)c1-n1cc(-c2ccc(Cl)c(C(=O)NC3CC3)c2)cn1 [Compound 4, 5-[4-[4-chloro-3-(cyclopropylcarbamoyl)phenyl]pyrazol-1-yl]-3-fluorosulfonyloxy-1-methyl-4-(trifluoromethyl)pyrazole]
≥ 80%: mortality at 200 ppm (Spodoptera littoralis)

Cn1nc(OS(=O)(=O)C(F)(F)C(F)(F)C(F)(F)C(F)(F)F)c(C(F)(F)F)c1-n1cc(-c2cnc(Cl)c(C(=O)NC3(C#N)CC3)c2)cn1 [Compound 30, [5-[4-[6-chloro-5-[(1-cyanocyclopropyl)carbamoyl]-3-pyridyl]pyrazol-1-yl]-1-methyl-4-(trifluoromethyl)pyrazol-3-yl] 1,1,2,2,3,3,4,4,4-nonafluorobutane-1-sulfonate]
≥ 80%: percent control (mortality, anti-feedant effect or growth inhibition) at 200 ppm (Spodoptera littoralis) | mortality at 200 ppm (Plutella xylostella) | mortality at 200 ppm (Diabrotica Balteata)

CN(C(=O)c1cc(-c2cnn(-c3c(C(F)(F)F)c(OS(=O)(=O)C(F)(F)C(F)(F)C(F)(F)C(F)(F)F)nn3C)c2)ccc1Cl)C1CC1 [Compound 15, [5-[4-[4-chloro-3-[cyclopropyl(methyl)carbamoyl]phenyl]pyrazol-1-yl]-1-methyl-4-(trifluoromethyl)pyrazol-3-yl] 1,1,2,2,3,3,4,4,4-nonafluorobutane-1-sulfonate]
≥ 80%: percent control (mortality, anti-feedant effect or growth inhibition) at 200 ppm (Spodoptera littoralis) | mortality at 200 ppm (Plutella xylostella) | mortality at 200 ppm (Diabrotica Balteata)

CN(C(=O)c1cc(-c2cc(-c3c(C(F)(F)F)c(OS(=O)(=O)C(F)(F)C(F)(F)C(F)(F)C(F)(F)F)nn3C)no2)ccc1Cl)C1(C#N)CC1 [Compound 43, [5-[5-[4-chloro-3-[(1-cyanocyclopropyl)-methyl-carbamoyl]phenyl]isoxazol-3-yl]-1-methyl-4-(trifluoromethyl)pyrazol-3-yl] 1,1,2,2,3,3,4,4,4-nonafluorobutane-1-sulfonate]
≥ 80%: percent control (mortality, anti-feedant effect or growth inhibition) at 200 ppm (Spodoptera littoralis) | mortality at 200 ppm (Plutella xylostella) | mortality at 200 ppm (Diabrotica Balteata) | mortality at 200 ppm (Thrips tabaci)

CCN(C(=O)c1cc(-c2cc(-c3c(C(F)(F)F)c(OS(=O)(=O)C(F)(F)C(F)(F)C(F)(F)C(F)(F)F)nn3C)no2)ccc1Cl)C1(C#N)CC1 [Compound 44, [5-[5-[4-chloro-3-[(1-cyanocyclopropyl)-ethyl-carbamoyl]phenyl]isoxazol-3-yl]-1-methyl-4-(trifluoromethyl)pyrazol-3-yl] 1,1,2,2,3,3,4,4,4-nonafluorobutane-1-sulfonate]
≥ 80%: percent control (mortality, anti-feedant effect or growth inhibition) at 200 ppm (Spodoptera littoralis) | mortality at 200 ppm (Plutella xylostella)

Cn1nc(OS(=O)(=O)C(F)(C(F)(F)F)C(F)(F)F)c(C(F)(F)F)c1-n1cc(-c2cnc(Cl)c(C(=O)NC3(C#N)CC3)c2)cn1 [Compound 24, [5-[4-[6-chloro-5-[(1-cyanocyclopropyl)carbamoyl]-3-pyridyl]pyrazol-1-yl]-1-methyl-4-(trifluoromethyl)pyrazol-3-yl] 1,1,1,2,3,3,3-heptafluoropropane-2-sulfonate]
≥ 80%: percent control (mortality, anti-feedant effect or growth inhibition) at 200 ppm (Spodoptera littoralis) | mortality at 200 ppm (Plutella xylostella; [1]) | mortality at 200 ppm (Diabrotica Balteata; [2]) | mortality at 200 ppm (Tetranychus urticae)
